± gives the standard deviation of the averaged measurements.
system: HCI-019 (organoid from a triple-negative breast cancer xenograft); assay: CTG-3D luminescence at 96 h relative to day-0 seeding control (ratio to day 0); higher = more growth / less cytotoxicity; PDxO 3D drug screen (set 2), 96 h, CTG-3D normalised to day-0 seeding control.; conditions: 625 fM; days in culture: 215

SMILES | CTG-3D luminescence at 96 h
CC(=O)c1c(C)c2cnc(Nc3ccc(N4CCNCC4)cn3)nc2n(C2CCCC2)c1=O [palbociclib] | 1.73
Cc1c(CN2CCN(C(=O)[C@H](C)O)CC2)sc2c(N3CCOCC3)nc(-c3cnc(N)nc3)nc12 [apitolisib] | 1.4
CS(=O)(=O)CCNCc1ccc(-c2ccc3ncnc(Nc4ccc(OCc5cccc(F)c5)c(Cl)c4)c3c2)o1 [lapatinib] | 2.07
CCOc1ccn(-c2ccc(F)cc2)c(=O)c1C(=O)Nc1ccc(Oc2ccnc(N)c2Cl)c(F)c1 [ASLAN002] | 1.91
Nc1cc(C(F)(F)F)c(-c2cc(N3CCOCC3)nc(N3CCOCC3)n2)cn1 [buparlisib] | 1.2

system: HCI-003.E2 (organoid from an ER-positive breast cancer xenograft); assay: as above; conditions: 12.5 pM

SMILES | CTG-3D luminescence at 96 h
CC(C)n1nc(-c2ccc3oc(N)nc3c2)c2c(N)ncnc21 [sapanisertib] | 2.44 ± 0.35
C[C@@H](Nc1cc(F)cc(F)c1)c1cc(C(=O)N(C)C)cc2c(=O)cc(N3CCOCC3)oc12 [AZD-8186] | 2.53 ± 0.33
CC(=O)c1c(C)c2cnc(Nc3ccc(N4CCNCC4)cn3)nc2n(C2CCCC2)c1=O [palbociclib] | 2.52 ± 0.43
Cc1c(CN2CCN(C(=O)[C@H](C)O)CC2)sc2c(N3CCOCC3)nc(-c3cnc(N)nc3)nc12 [apitolisib] | 2.46 ± 0.21
CS(=O)(=O)CCNCc1ccc(-c2ccc3ncnc(Nc4ccc(OCc5cccc(F)c5)c(Cl)c4)c3c2)o1 [lapatinib] | 2.53 ± 0.56
CCOc1ccn(-c2ccc(F)cc2)c(=O)c1C(=O)Nc1ccc(Oc2ccnc(N)c2Cl)c(F)c1 [ASLAN002] | 2.68 ± 0.54
Nc1cc(C(F)(F)F)c(-c2cc(N3CCOCC3)nc(N3CCOCC3)n2)cn1 [buparlisib] | 2.55 ± 0.32

same assay, conditions: 0.00025 µM

SMILES | CTG-3D luminescence at 96 h
CC(C)n1nc(-c2ccc3oc(N)nc3c2)c2c(N)ncnc21 [sapanisertib] | 2.37 ± 0.23
C[C@@H](Nc1cc(F)cc(F)c1)c1cc(C(=O)N(C)C)cc2c(=O)cc(N3CCOCC3)oc12 [AZD-8186] | 2.56 ± 0.38
CC(=O)c1c(C)c2cnc(Nc3ccc(N4CCNCC4)cn3)nc2n(C2CCCC2)c1=O [palbociclib] | 2.44 ± 0.46
Cc1c(CN2CCN(C(=O)[C@H](C)O)CC2)sc2c(N3CCOCC3)nc(-c3cnc(N)nc3)nc12 [apitolisib] | 2.27 ± 0.43
CS(=O)(=O)CCNCc1ccc(-c2ccc3ncnc(Nc4ccc(OCc5cccc(F)c5)c(Cl)c4)c3c2)o1 [lapatinib] | 2.41 ± 0.69
CCOc1ccn(-c2ccc(F)cc2)c(=O)c1C(=O)Nc1ccc(Oc2ccnc(N)c2Cl)c(F)c1 [ASLAN002] | 2.58 ± 0.47
Nc1cc(C(F)(F)F)c(-c2cc(N3CCOCC3)nc(N3CCOCC3)n2)cn1 [buparlisib] | 2.29 ± 0.59

same assay, conditions: 0.005 µM

SMILES | CTG-3D luminescence at 96 h
CC(C)n1nc(-c2ccc3oc(N)nc3c2)c2c(N)ncnc21 [sapanisertib] | 2.1 ± 0.75
C[C@@H](Nc1cc(F)cc(F)c1)c1cc(C(=O)N(C)C)cc2c(=O)cc(N3CCOCC3)oc12 [AZD-8186] | 2.18 ± 1.5
CC(=O)c1c(C)c2cnc(Nc3ccc(N4CCNCC4)cn3)nc2n(C2CCCC2)c1=O [palbociclib] | 2.53 ± 0.76
Cc1c(CN2CCN(C(=O)[C@H](C)O)CC2)sc2c(N3CCOCC3)nc(-c3cnc(N)nc3)nc12 [apitolisib] | 2.31 ± 0.94
CS(=O)(=O)CCNCc1ccc(-c2ccc3ncnc(Nc4ccc(OCc5cccc(F)c5)c(Cl)c4)c3c2)o1 [lapatinib] | 2.48 ± 0.9
CCOc1ccn(-c2ccc(F)cc2)c(=O)c1C(=O)Nc1ccc(Oc2ccnc(N)c2Cl)c(F)c1 [ASLAN002] | 2.76 ± 0.83
Nc1cc(C(F)(F)F)c(-c2cc(N3CCOCC3)nc(N3CCOCC3)n2)cn1 [buparlisib] | 2.6 ± 0.5

same assay, conditions: 0.1 µM

SMILES | CTG-3D luminescence at 96 h
CC(C)n1nc(-c2ccc3oc(N)nc3c2)c2c(N)ncnc21 [sapanisertib] | 0.144 ± 0.073
C[C@@H](Nc1cc(F)cc(F)c1)c1cc(C(=O)N(C)C)cc2c(=O)cc(N3CCOCC3)oc12 [AZD-8186] | 2.38 ± 0.2
CC(=O)c1c(C)c2cnc(Nc3ccc(N4CCNCC4)cn3)nc2n(C2CCCC2)c1=O [palbociclib] | 2.82 ± 0.78
Cc1c(CN2CCN(C(=O)[C@H](C)O)CC2)sc2c(N3CCOCC3)nc(-c3cnc(N)nc3)nc12 [apitolisib] | 1.31 ± 0.17
CS(=O)(=O)CCNCc1ccc(-c2ccc3ncnc(Nc4ccc(OCc5cccc(F)c5)c(Cl)c4)c3c2)o1 [lapatinib] | 2.27 ± 0.78
CCOc1ccn(-c2ccc(F)cc2)c(=O)c1C(=O)Nc1ccc(Oc2ccnc(N)c2Cl)c(F)c1 [ASLAN002] | 2.78 ± 0.84
Nc1cc(C(F)(F)F)c(-c2cc(N3CCOCC3)nc(N3CCOCC3)n2)cn1 [buparlisib] | 2.53 ± 0.85

same assay, conditions: 1 µM

SMILES | CTG-3D luminescence at 96 h
CC(C)n1nc(-c2ccc3oc(N)nc3c2)c2c(N)ncnc21 [sapanisertib] | 0.0411 ± 0.026
C[C@@H](Nc1cc(F)cc(F)c1)c1cc(C(=O)N(C)C)cc2c(=O)cc(N3CCOCC3)oc12 [AZD-8186] | 2.13 ± 0.22
CC(=O)c1c(C)c2cnc(Nc3ccc(N4CCNCC4)cn3)nc2n(C2CCCC2)c1=O [palbociclib] | 2.21 ± 0.33
Cc1c(CN2CCN(C(=O)[C@H](C)O)CC2)sc2c(N3CCOCC3)nc(-c3cnc(N)nc3)nc12 [apitolisib] | 0.0639 ± 0.034
CS(=O)(=O)CCNCc1ccc(-c2ccc3ncnc(Nc4ccc(OCc5cccc(F)c5)c(Cl)c4)c3c2)o1 [lapatinib] | 1.77 ± 0.3
CCOc1ccn(-c2ccc(F)cc2)c(=O)c1C(=O)Nc1ccc(Oc2ccnc(N)c2Cl)c(F)c1 [ASLAN002] | 2.47 ± 0.26
Nc1cc(C(F)(F)F)c(-c2cc(N3CCOCC3)nc(N3CCOCC3)n2)cn1 [buparlisib] | 0.705 ± 0.19

same assay, conditions: 10 µM

SMILES | CTG-3D luminescence at 96 h
CC(C)n1nc(-c2ccc3oc(N)nc3c2)c2c(N)ncnc21 [sapanisertib] | 0.0196 ± 0.0061
C[C@@H](Nc1cc(F)cc(F)c1)c1cc(C(=O)N(C)C)cc2c(=O)cc(N3CCOCC3)oc12 [AZD-8186] | 1.28 ± 0.26
CC(=O)c1c(C)c2cnc(Nc3ccc(N4CCNCC4)cn3)nc2n(C2CCCC2)c1=O [palbociclib] | 1.92 ± 0.12
Cc1c(CN2CCN(C(=O)[C@H](C)O)CC2)sc2c(N3CCOCC3)nc(-c3cnc(N)nc3)nc12 [apitolisib] | 0.0361 ± 0.0071
CS(=O)(=O)CCNCc1ccc(-c2ccc3ncnc(Nc4ccc(OCc5cccc(F)c5)c(Cl)c4)c3c2)o1 [lapatinib] | 0.0655 ± 0.011
CCOc1ccn(-c2ccc(F)cc2)c(=O)c1C(=O)Nc1ccc(Oc2ccnc(N)c2Cl)c(F)c1 [ASLAN002] | 1.97 ± 0.13
Nc1cc(C(F)(F)F)c(-c2cc(N3CCOCC3)nc(N3CCOCC3)n2)cn1 [buparlisib] | 0.037 ± 0.009

same assay, conditions: 100 µM

SMILES | CTG-3D luminescence at 96 h
CC(C)n1nc(-c2ccc3oc(N)nc3c2)c2c(N)ncnc21 [sapanisertib] | 0.00904 ± 0.0012
C[C@@H](Nc1cc(F)cc(F)c1)c1cc(C(=O)N(C)C)cc2c(=O)cc(N3CCOCC3)oc12 [AZD-8186] | 0.0452 ± 0.0039
CC(=O)c1c(C)c2cnc(Nc3ccc(N4CCNCC4)cn3)nc2n(C2CCCC2)c1=O [palbociclib] | 0.594 ± 0.47
Cc1c(CN2CCN(C(=O)[C@H](C)O)CC2)sc2c(N3CCOCC3)nc(-c3cnc(N)nc3)nc12 [apitolisib] | 0.0424 ± 0.0037
CS(=O)(=O)CCNCc1ccc(-c2ccc3ncnc(Nc4ccc(OCc5cccc(F)c5)c(Cl)c4)c3c2)o1 [lapatinib] | 0.000467 ± 0.00016
CCOc1ccn(-c2ccc(F)cc2)c(=O)c1C(=O)Nc1ccc(Oc2ccnc(N)c2Cl)c(F)c1 [ASLAN002] | 1.09 ± 0.32
Nc1cc(C(F)(F)F)c(-c2cc(N3CCOCC3)nc(N3CCOCC3)n2)cn1 [buparlisib] | 0.0142 ± 0.0033

same assay, conditions: 625 fM

SMILES | CTG-3D luminescence at 96 h
CC(C)n1nc(-c2ccc3oc(N)nc3c2)c2c(N)ncnc21 [sapanisertib] | 2.87 ± 0.73
C[C@@H](Nc1cc(F)cc(F)c1)c1cc(C(=O)N(C)C)cc2c(=O)cc(N3CCOCC3)oc12 [AZD-8186] | 2.58 ± 0.6

From the supplement of paper PMC8882468
